From patent US20250382631A1, “PROTAC-CID SYSTEMS FOR USE IN MULTIPLEX GENE REGULATION” (William Marsh Rice University, priority 2022, published 2025)
Like-named read-outs stand apart in the source and are kept apart here.

Legend:
[1] = target: GAL4-FKBP12^F36V (human); test: cell-based or functional assay
[2] = test system: pUAS-2-Fluc expression in HEK293T cells with cognate or non-cognate GAL4/VPR protein pairs; test: Orthogonality analysis, Firefly luciferase (Fluc) luminescence; assay type: cell-based, human; settings: seven different protein pairs, 2 days, FIGS. 2A and 14
Protocol: Luciferase luminescence intensity measurement. Before transfection, HEK293T cells were seeded in clear bottom 96 well assay plates (Corning no. 3610) with 100 μL DMEM with 10% FBS and 1× penicillin-streptomycin at 37° C. with 5% CO2. When cells reached 50% confluency, 1.5 μL PEI Max (1 mg/mL, pH=7.1) and 100 μL DMEM were mixed with 60 ng of each plasmid (GAL4 and VPR fused target protein or E3 ubiquitin ligase, pUAS-2-Fluc) for 30 min at room temperature. Mixture was transferred into cells gently. 12 h after transfection, medium was changed, and the inductive small molecules were supplied. 2-days post induction, 120 μL of medium was aspirated from each well containing 200 μL of medium, leaving 80 μL of medium per well, then treated with 40 μL of lysis buffer (500 mM DTT (Sigma no. D0632), 10 mM coenzyme A (RPI no. C95275), 100 mM ATP (Thermo Fisher Scientific no. R1441), 80 mg/mL D-luciferin (GoldBio no. LUCNA-100), Triton lysis buffer (0.1082 M Tris-HCl, 0.0419 M Tris-Base, 75 mM NaCl, 3 mM MgCl2)). Plate was shaken with 20 seconds in “Orbital” mode with frequency of 432 rpm and Amplitude of 1 mm to lysis the cells. Recording the luminescence by plate reader Infinite M200 (TECAN) with 1000 ms integration time using Megellan v1.7 (TECAN). Mean of luciferase luminescence relative light units (RLU) was calculated by the average of three biological replications. Normalized RLU were calculated by dividing RLU of the tested group with mean of RLU of DMSO treated control group for normalization: […]

[3] = PROTAC-CID inducible EYFP gene activation, flow cytometry; assay type: cell-based, human; settings: Homo sapiens, HEK-293T, FIG. 13A
Protocol: (§1) Fluorescence assay using flow cytometry analysis. Cells were treated with 0.05% Trpsin EDTA (Thermo Fisher Scientific no. 25300054) or TrypLE (Thermo Fisher Scientific no. 12605028) after transfection and centrifuged at 3000 g for 5 min. Supernatant was removed and the cell pellet was resuspended with 200 μL phosphate buffered saline (PBS) without calcium and magnesium (Thermo Fisher Scientific no. 10010023). Cells were transferred into 12×75 mm flow tubes (Global Scientific no. 110410). Cells were analyzed by MA900 flow cytometry (SONY). 405 nm laser (FL6 filter) was used for testing the BFP channel. 488 nm (FL1 filter) was used for testing the EYFP and GFP channel. Automated alignment using Automatic Setup Beads kit (SONY no. LE-B3001) is performed before running samples. In FIGS. 3A, 3B, and 17, experiments were performed under 2% FSC, 17% BSC, 24% FL1. In FIG. 18, experiments were performed under 2% FSC, 17% BSC, 27% FL1. All the other experiments were performed under 2% FSC, 17% BSC, 24% FL1 and 27% FL6. Flow cytometry data was processed and analyzed by FlowJo 10. Events were first gated with forward scatter-Area (FSC-A) and side scatter-Area (SSC-A) to select viable cells and remove the debris and dead cells. Cells were further gated with FSC-A and FSC-Height (FSC-H) for selecting single cells. The mean intensity of the reporter fluorescent protein (BFP and EYFP) in viable and single cell populations were calculated by FlowJo 10 as the mean of FL6-A and FL1-A. When calculating the fold change of relative fluorescence units (RFU), the relative fluorescence units of EYFP was calculated by dividing the mean of fluorescence intensity of EYFP with the mean of BFP fluorescence intensity for normalization as the following formula: […]
(§2) Next, the mean of the normalized relative fluorescence units of induced group were divided by the value of control group for calculating the fold change as the following formula: […]
(§3) Transfection and microscopy. HEK293T cells (American Type Culture Collection, no. CRL-3216) were cultured with high-glucose Dulbecco's modified Eagle's medium (DMEM) (Thermo Fisher Scientific no. 10569044) with 10% fetal bovine serum (FBS) (Thermo Fisher Scientific no. 10437028) and 1×penicillin-streptomycin (Thermo Fisher Scientific no. 15140122) at 37° C. with 5% CO2. Except for the data in FIGS. 3C, 3E, and 3H, cells were plated into 96 well plate (Corning no. 3598) and transfected by Polyethyleneimine Max (PEI Max) (Polysciences no. 24765-1). 1.5 μL PEI Max (1 mg/mL, pH=7.1) and 100 μl DMEM were mixed with plasmids to be slowly dropped into the cell medium after 30 mins of incubation. Medium was changed 12 hours post-transfection. The inductive small molecules, including Rapamycin (STEM CELL technologies no. 73362), dTAG-13 (TOCRIS no. 6605/5), dTAG^V-1 (TOCRIS no. 6744-5), dBRD9 (TOCRIS no. 6606/5), dTRIM24 (TOCRIS no. 6607/5), MZ1 (TOCRIS no. 6154/5), AT1 (TOCRIS no. 6356/5), TL13-12 (TOCRIS no. 6744/5), TL13-112 (TOCRIS no. 6745/5), dTAG-7 (TOCRIS no. 69125), ZXH3-26 (TOCRIS no. 6713/5) and ABA (GoldBio no. A-050-100), dissolved in Dimethyl sulfoxide (DMSO) (Sigma, no. D8418) were added. For the microscopy observation, the images were taken by Microscopy EVOS (Life Technologies) and processed by ImageJ (Schneider et al., 2012). If not otherwise noted, 60 ng of each plasmid were used for each sample.
(§4) Step-by-step fluorescence protein activation assay protocol. Reagents: • 1. PEI Max (Polysciences no. 24765-1) • 2. DMEM, high glucose, GlutaMAX™ Supplement, pyruvate (Thermo Fisher Scientific no. 10569044) • 3. Penicillin-Streptomycin (10,000 U/mL) (Thermo Fisher Scientific no. 15140122) • 4. Fetal Bovine Serum 500ML (FBS) (Thermo Fisher Scientific no. 10437028) • 5. TrypLE™ Express Enzyme (1×), phenol red (Thermo Fisher Scientific no. 12605068) • 6. PBS pH=7.4 (Thermo Fisher Scientific no. 10010023) • 7. Sony sorting chip […] for MA900 (SONY no. LE-C3210) • 8. Automatic Setup Beads kit (SONY no. LE-B3001) • 9. […]

[4] = test system: pUAS-1-driven EYFP expression in HEK293T cells transfected with GAL4- and VPR-fused PROTAC target protein / E3 ubiquitin ligase; test: as above; assay type: cell-based, human; settings: for Bottom (best-fit value) / Span (best-fit value) / Top (best-fit value): Table 4 nonlinear regression of EYFP activation; for Bottom (best-fit value) / Span (best-fit value) / Top (best-fit value) / Hillslope (best-fit value) / logEC50 (best-fit value): FIG. 13A; for Hillslope (best-fit value) / logEC50 (best-fit value): Table 4 nonlinear regression; for increase in EYFP expression / EYFP induction compared to DMSO-treated controls: bromodomain-VPR fusion co-transfected with GAL4-VHL, FIG. 1C 5 μM dTRIM24, FIG. 1D 100 nM MZ1 or 1 μM AT1
Protocol: as §1, §2, §3, §4

[5] = Table 4 nonlinear regression, Prism 9 [Agonist] vs. response variable slope (four parameters), no unit in table (the source gives nM), read-out: EC50 (best-fit value)
[6] = dose-response, read-out: EC50 for gene activation

VHL-VPR (from UniProt P40337 1-213)
EC50 of the inducer dTAG^V-1 for EYFP gene activation (dose-response, FIG. 13A) [1]: 228 nM

Cc1cc(Nc2ncc(Cl)c(Nc3ccccc3S(=O)(=O)C(C)C)n2)c(OC(C)C)cc1C1CCN(CCOCCOCCNC(=O)CNc2cccc3c2C(=O)N(C2CCC(=O)NC2=O)C3=O)CC1 (centres unmarked) [TL13-112]
orthogonality: Fluc activation with cognate vs non-cognate protein partners [2]: interact with the same protein pairs

COc1cc(N2CCN(CCOCCOCCNC(=O)CNc3cccc4c3C(=O)N(C3CCC(=O)NC3=O)C4=O)CC2)ccc1Nc1ncc(Cl)c(Nc2ccccc2S(=O)(=O)C(C)C)n1 (centres unmarked) [TL13-12]
orthogonality: Fluc activation with cognate vs non-cognate protein partners [2]: interact with the same protein pairs

CRBN-VPR
EC50 of the inducer dTAG-13 for EYFP gene activation (dose-response, FIG. 13A) [1]: 53 nM | fold increase in EYFP expression with dTAG-13 [1]: > 100 fold

CC(=O)N[C@H](C(=O)N1C[C@H](O)C[C@H]1C(=O)NCc1ccc(-c2scnc2C)cc1)C(C)(C)SCCCCCCNC(=O)C[C@@H]1N=C(c2ccc(Cl)cc2)c2c(sc(C)c2C)-n2c(C)nnc21 [AT1]
orthogonality: Fluc activation with cognate vs non-cognate protein partners [2]: interact with the same protein pairs

CCCOc1cccc(Oc2cc3c(cc2NS(=O)(=O)c2cccc(C(=O)NCCOCCOCCOCC(=O)N[C@H](C(=O)N4C[C@H](O)C[C@H]4C(=O)NCc4ccc(-c5scnc5C)cc4)C(C)(C)C)c2)n(C)c(=O)n3C)c1 [dTRIM24]
EC50 [3, 5]: 6350 nM | EC50 [3, 6]: 6300 nM | grades of EYFP intensity ([4]; HEK293T transfected with GAL4-VHL, TRIM24^BD-VPR, BRD4^BD2-VPR and reporter plasmid, FIG. 2E: dTRIM24, MZ1 100 nM): 37 fold | Bottom (best-fit value) [4]: 0.5037 | Span (best-fit value) [4]: 1430 | Top (best-fit value) [4]: 1431 | Hillslope (best-fit value) [4]: 1.463 | logEC50 (best-fit value) [4]: 3.803 | fold change gene activation activity ([4]; at 5 μM): more than 500 fold | fold change in EYFP expression ([4]; below 1 μM): less than 100 fold

CC1=CC(=O)CC(C)(C)[C@@]1(O)/C=C/C(C)=C\C(=O)O [ABA, abscisic acid]
EC50 [3, 5]: 763 nM | EC50 [3, 6]: 763 nM | Bottom (best-fit value) [4]: 1.587 | Span (best-fit value) [4]: 77.84 | Top (best-fit value) [4]: 79.43 | Hillslope (best-fit value) [4]: 2.083 | logEC50 (best-fit value) [4]: 2.882

Nc1cccc2c1CN(C1CCC(=O)NC1=O)C2=O (centres unmarked) [Lenalidomide]
inducible gene activation efficiency compared with dTAG-13 PROTAC-CID ([4]; CRBN-VPR with GAL4 fused IKZF1 or IKZF3, Lenalidomide 1 μM vs 100 nM dTAG-13, 2 days, FIGS. 11D-11E): significantly less efficient than the dTAG-13 PROTAC-CID system

B1: TRIM24BD-VPR: Fusion protein of VPR with the bromodomain of TRIM24 (SEQ ID NO: 4) (protein)
chain: MPKKKRKVGGGSPGGGGSPNEDWCAVCQNGGELLCCEKCPKVFHLSCHVPTLTNFPSGEWICTFCRDLSKPEVEYDCDAPSHNSEKKKTEGLVKLTPIDKRKCERLLLFLYCHEMSLAFQDPVPLTVPDYYKIIKNPMDLSTIKKRLQEDYSMYSKPEDFVADFRLIFQNCAEFNEPDSEVANAGIKLENYFEELLKNLYPGGGSRADPKKKRKVEASGSGRADALDDFDLDMLGSDALDDFDLDMLGSDALDDFDLDMLGSDALDDFDLDMLINSRSQYLPDTDDRHRIEEKRKRTYETFKSIMKKSPFSGPTDPRPPPRRIAVPSRSSASVPKPAPQPYPFTSSLSTINYDEFPTMVFPSGQISQASALAPAPPQVLPQAPAPAPAPAMVSALAQAPAPVPVLAPGPPQAVAPPAPKPTQAGEGTLSEALLQLQFDDEDLGALLGNSTDPAVFTDLASVDNSEFQQLLNQGIPVAPHTTEPMLMEYPEAITRLVTGAQRPPDPAPAPLGAPGLPNGLLSGDEDFSSIADMDFSALLGSGSGSRDSREGMFLPKPEAGSAISDVFEGREVCQPKRIRPFHPPGSPWANRPLPASLAPTPTGPVHEPVGSLTPAPVPQPLDPAPAVTPEASHLLEDPDEETSQAVKALREMADTVIPQKEEAAICGQMDLSHPPPRGHLDELTTTLESMTEDLNLDSPLTPELNEILDTFLNDECLLHAMHISTGLSIFDTSLFTSGGGSKRPAATKKAGQAKKKKSR
increase in EYFP expression / EYFP induction compared to DMSO-treated controls [4]: 592 fold

B2: BRD4^BD2-VPR: Fusion protein of VPR with bromodomain BD2 of BRD4 (SEQ ID NO: 7) (protein)
chain: MPKKKRKVGGGSPGGGGSSKVSEQLKCCSGILKEMFAKKHAAYAWPFYKPVDVEALGLHDYCDIIKHPMDMSTIKSKLEAREYRDAQEFGADVRLMFSNCYKYNPPDHEVVAMARKLQDVFEMRFAKMPDGGGSRADPKKKRKVEASGSGRADALDDFDLDMLGSDALDDFDLDMLGSDALDDFDLDMLGSDALDDFDLDMLINSRSQYLPDTDDRHRIEEKRKRTYETFKSIMKKSPFSGPTDPRPPPRRIAVPSRSSASVPKPAPQPYPFTSSLSTINYDEFPTMVFPSGQISQASALAPAPPQVLPQAPAPAPAPAMVSALAQAPAPVPVLAPGPPQAVAPPAPKPTQAGEGTLSEALLQLQFDDEDLGALLGNSTDPAVFTDLASVDNSEFQQLLNQGIPVAPHTTEPMLMEYPEAITRLVTGAQRPPDPAPAPLGAPGLPNGLLSGDEDFSSIADMDFSALLGSGSGSRDSREGMFLPKPEAGSAISDVFEGREVCQPKRIRPFHPPGSPWANRPLPASLAPTPTGPVHEPVGSLTPAPVPQPLDPAPAVTPEASHLLEDPDEETSQAVKALREMADTVIPQKEEAAICGQMDLSHPPPRGHLDELTTTLESMTEDLNLDSPLTPELNEILDTFLNDECLLHAMHISTGLSIFDTSLFTSGGGSKRPAATKKAGQAKKKKSR
increase in EYFP expression / EYFP induction compared to DMSO-treated controls [4]: 441 fold
